Data published in patent US8722687B2, “Imidazo [1,2-A]pyridine derivatives as FGFR kinase inhibitors for use in therapy” (Astex Therapeutics Ltd, priority 2009, dated 2014).

Columns and labels:
[1] = tested on: human prostate cancer PC3 cells; assay: EB1 cellular assay (Eb1 Comet assay, microtubule disruption); type: cell-based; conditions: PC-3, lowest active concentration: Eb1 foci absent in at least 50% of treated PC3 cells, 1 hour, read-out: Eb1 LAC
Procedure: The Eb1 Comet assay relies on the detection of the Eb1 protein at the plus end of polymerizing microtubules (Mimori-Kiyosue, 2000) using indirect immunofluorescence. Disruption of microtubule dynamics through de-polymerization or stabilization results in a de-localization of Eb1 from the growing microtubule ends and this is visualized by the disappearance of Eb1 containing cytoplasmic foci.
Briefly, human prostate cancer PC3 cells obtained from the American Type Culture Collection were grown in 96-well plates (Greiner, cat. no. 655090) in HAM's F12 medium as recommended by the provider (ATCC). The cells were treated for 1 hour at 37° C. with compounds dissolved in DMSO (0.6% final DMSO concentration). The culture medium was then removed by aspiration and the cells were fixed by adding cold methanol (−20° C.). After a 15 minutes incubation at −20° C., the cells were washed twice with DPBS (Gibco) containing 0.5% Triton X-100. Mouse Eb1 antibody (BD Transduction Laboratories, cat. no. 610534) was added to the cells (1/250 dilution in DPBS containing 1% BSA) and incubated overnight at room temperature. The antibody was subsequently removed and the cells washed twice with DPBS, 0.5% Triton X-100. Secondary goat anti-mouse antibody conjugated to Alexa 488 fluorescent dye (Molecular Probes) was added at a 1/500 dilution in DPBS, 1% BSA and incubated for 1 hour at 37° C. The cells were washed twice with DPBS, 0.5% Triton X-100 and then DPBS containing 0.5% Triton X-100 and 1/5000 Hoechst 33342 (Molecular Probes) was added. Microscopy based Eb1 foci visualization was carried out using an IN Cell Analyser 1000 (Amersham Biosciences) using a 20× objective. Compound dependent microtubule disruption was visually determined by the disappearance in Eb1 foci. The lowest active concentration (LAC) was determined as the concentration where Eb1 foci were absent in at least 50% of the treated cells. Herein the effects of test compounds are expressed as pLAC (the negative log value of the LAC-value)

Ba/F3-Flt3 cells = molecular target: T1, Ba/F3-Flt3 cells (Homo sapiens, UniProt P36888, cells depend on it, form not given); assay: Ba/F3-Flt3 assay (Alamar Blue); type: cell-based, murine; conditions: without IL3
T1 construct: Ba/F3-flt3 − IL3 pIC50; other: without IL3
T1 sequence (P36888 1-993): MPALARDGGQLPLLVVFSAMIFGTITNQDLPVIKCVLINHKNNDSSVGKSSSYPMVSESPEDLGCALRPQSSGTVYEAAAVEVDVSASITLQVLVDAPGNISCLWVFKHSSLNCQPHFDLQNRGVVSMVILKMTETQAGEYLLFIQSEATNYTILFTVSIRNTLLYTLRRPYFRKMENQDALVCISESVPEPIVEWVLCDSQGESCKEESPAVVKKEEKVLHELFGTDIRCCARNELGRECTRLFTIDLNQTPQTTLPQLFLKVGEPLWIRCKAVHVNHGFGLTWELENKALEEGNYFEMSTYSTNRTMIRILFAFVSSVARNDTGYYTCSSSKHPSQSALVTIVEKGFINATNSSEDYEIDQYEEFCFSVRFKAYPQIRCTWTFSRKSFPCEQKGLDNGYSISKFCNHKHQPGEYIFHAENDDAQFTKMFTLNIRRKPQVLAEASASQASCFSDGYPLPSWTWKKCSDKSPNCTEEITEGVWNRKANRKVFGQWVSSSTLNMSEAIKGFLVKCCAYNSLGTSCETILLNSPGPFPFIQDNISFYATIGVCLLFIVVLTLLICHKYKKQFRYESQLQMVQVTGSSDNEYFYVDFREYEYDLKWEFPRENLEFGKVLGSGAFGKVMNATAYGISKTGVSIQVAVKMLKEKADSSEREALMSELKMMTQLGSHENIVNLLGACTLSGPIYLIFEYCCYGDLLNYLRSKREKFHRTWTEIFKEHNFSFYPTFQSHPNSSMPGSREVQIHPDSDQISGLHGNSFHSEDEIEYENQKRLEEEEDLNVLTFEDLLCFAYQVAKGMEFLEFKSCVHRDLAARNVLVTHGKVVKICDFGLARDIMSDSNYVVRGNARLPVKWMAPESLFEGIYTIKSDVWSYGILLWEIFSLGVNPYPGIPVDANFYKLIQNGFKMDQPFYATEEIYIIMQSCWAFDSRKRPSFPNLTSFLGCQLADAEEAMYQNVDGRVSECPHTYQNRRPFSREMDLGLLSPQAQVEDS
Summary of the method: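 Ba/F3-Flt3 cells in phenol red-free RPMI-1640 with 10% FCS were plated, and compound dilutions were added 24 h later at 0.2% DMSO final. After 24 h at 37 °C, Alamar Blue was added for 4 h and fluorescence was read (ex 544/em 590 nm) to derive IC50. The IL3 condition added 10 ng/ml murine IL3 during compound exposure.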

Compound	Ba/F3-flt3 − IL3 pIC50 (Ba/F3-Flt3 cells)	minimal effective concentration [1]
CC(C)Oc1cc(NC(=O)NCC(F)(F)F)cc(-c2cnc3cc(-c4ncc(F)c(N)n4)ccn23)c1 [Compound F-1, 1-{3-[7-(4-Amino-5-fluoro-pyrimidin-2-yl)-imidazo[1,2-a]pyridin-3-yl]-5-isopropoxy-phenyl}-3-(2,2,2-trifluoro-ethyl)-urea]	<5	> 10 µM
CC(C)Oc1cc(NC(=O)NCC(F)(F)F)cc(-c2cnc3cc(-c4ncccn4)ccn23)c1 [Compound F-2, 1-[3-Isopropoxy-5-(7-pyrimidin-2-yl-imidazo[1,2-a]pyridin-3-yl)-phenyl]-3-(2,2,2-trifluoro-ethyl)-urea]	<5	> 10 µM
Cc1nc(-c2ccn3c(-c4cc(NC(=O)NCC(F)(F)F)cc(OC(C)C)c4)cnc3c2)ccc1F [Compound F-3, 1-{3-[7-(5-Fluoro-6-methyl-pyridin-2-yl)-imidazo[1,2-a]pyridin-3-yl]-5-isopropoxy-phenyl}-3-(2,2,2-trifluoro-ethyl)-urea]	<5	> 10 µM
Cc1nc(N)cc(-c2ccn3c(-c4cc(NC(=O)NCC(F)(F)F)cc(OC(C)C)c4)cnc3c2)n1 [Compound F-4, 1-{3-[7-(6-Amino-2-methyl-pyrimidin-4-yl)-imidazo[1,2-a]pyridin-3-yl]-5-isopropoxy-phenyl}-3-(2,2,2-trifluoro-ethyl)-urea]	<5	1 µM
Cc1nnc(-c2ccn3c(-c4cc(NC(=O)NCC(F)(F)F)cc(OC(C)C)c4)cnc3c2)o1 [Compound F-5, 1-{3-Isopropoxy-5-[7-(5-methyl-[1,3,4]oxadiazol-2-yl)-imidazo[1,2-a]pyridin-3-yl]-phenyl}-3-(2,2,2-trifluoro-ethyl)-urea]	<5	> 10 µM
CC(C)Oc1cc(NC(=O)NCC(F)(F)F)cc(-c2cnc3cc(C(=O)C4CC4)ccn23)c1 [Compound F-6, 1-[3-(7-Cyclopropanecarbonyl-imidazo[1,2-a]pyridin-3-yl)-5-isopropoxy-phenyl]-3-(2,2,2-trifluoro-ethyl)-urea]	<5	3 µM
COCc1cc(NC(=O)NCC(F)(F)F)cc(-c2cnc3cc(-c4nnc(C)o4)ccn23)c1 [Compound F-7, 1-{3-Methoxymethyl-5-[7-(5-methyl-[1,3,4]oxadiazol-2-yl)-imidazo[1,2-a]pyridin-3-yl]-phenyl}-3-(2,2,2-trifluoro-ethyl)-urea]	<5	10 µM
CC(C)Oc1cc(NC(=O)NCC(F)(F)F)cc(-c2cnc3cc(-c4ccnc(C(F)(F)F)n4)ccn23)c1 [Compound F-8, 1-{3-Isopropoxy-5-[7-(2-trifluoromethyl-pyrimidin-4-yl)-imidazo[1,2-a]pyridin-3-yl]-phenyl}-3-(2,2,2-trifluoro-ethyl)-urea]	<5	5 µM
COCc1cc(NC(=O)NCC(F)(F)F)cc(-c2cnc3cc(-c4ccnc(C(F)(F)F)n4)ccn23)c1 [Compound F-9, 1-{3-Methoxymethyl-5-[7-(2-trifluormethyl-pyrimidin-4-yl)-imidazo[1,2-a]pyridin-3-yl]-phenyl}-3-(2,2,2-trifluoro-ethyl)-urea]	<5	2 µM
CCNC(=O)Nc1cc(OC(C)C)cc(-c2cnc3cc(-c4nncs4)ccn23)c1 [Compound F-10, 1-Ethyl-3-[3-isopropoxy-5-(7-[1,3,4]thiadiazol-2-yl-imidazo[1,2-a]pyridin-3-yl)-phenyl]-urea]	5.04	5 µM
Cc1nnc(-c2ccn3c(-c4cc(NC(=O)NCC(F)(F)F)cc(OC5CCC5)c4)cnc3c2)o1 [Compound F-11, 1-{3-Cyclobutoxy-5-[7-(5-methyl-[1,3,4]oxadiazol-2-yl)-imidazo[1,2-a]pyridin-3-yl]-phenyl}-3-(2,2,2-trifluoro-ethyl)-urea]	<5	> 10 µM
CC(C)Oc1cc(NC(=O)NCC(F)(F)F)cc(-c2cnc3cc(N4CCC(F)(F)CC4)ccn23)c1 [Compound F-13, 1-{3-[7-(4,4-Difluoro-piperidin-1-yl)-imidazo[1,2-a]pyridin-3-yl]-5-isopropoxy-phenyl}-3-(2,2,2-trifluoro-ethyl)-urea]	<5	5 µM

More lines, main results first:

Ba/F3-flt3 − IL3 pIC50 (Ba/F3-Flt3 cells)	Compound	minimal effective concentration [1]
<5	CCOc1cc(NC(=O)NCC(F)(F)F)cc(-c2cnc3cc(-c4nnc(C)o4)ccn23)c1 [Compound F-15, 1-{3-Ethoxy-5-[7-(5-methyl-[1,3,4]oxadiazol-2-yl)-imidazo[1,2-a]pyridin-3-yl]-phenyl}-3-(2,2,2-trifluoro-ethyl)-urea]	10 µM
<5	CCOc1cc(NC(=O)NCC(F)(F)F)cc(-c2cnc3cc(-c4ccnc(C(F)(F)F)n4)ccn23)c1 [Compound F-16, 1-{3-Ethoxy-5-[7-(2-trifluoromethyl-pyrimidin-4-yl)-imidazo[1,2-a]pyridin-3-yl]-phenyl}-3-(2,2,2-trifluoro-ethyl)-urea]	> 10 µM
<5	CC(C)Oc1cc(NC(=O)NCC(F)(F)F)cc(-c2cnc3cc(OCCO)ccn23)c1 [Compound F-17, 1-{3-[7-(2-Hydroxy-ethoxy)-imidazo[1,2-a]pyridin-3-yl]-5-isopropoxy-phenyl}-3-(2,2,2-trifluoro-ethyl)-urea]	3 µM
<5	CC(C)Oc1cc(NC(=O)NCC(F)(F)F)cc(-c2cnc3cc(OCCCO)ccn23)c1 [Compound F-18, 1-{3-[7-(3-Hydroxy-propoxy)-imidazo[1,2-a]pyridin-3-yl]-5-isopropoxy-phenyl}-3-(2,2,2-trifluoro-ethyl)-urea]	5 µM
<5	CC(C)Oc1cc(NC(=O)NCC(F)(F)F)cc(-c2cnc3cc(-c4nncs4)ccn23)c1.Cl [Compound F-19, 1-[3-Isopropoxy-5-(7-[1,3,4]thiadiazol-2-yl-imidazo[1,2-a]pyridin-3-yl)-phenyl]-3-(2,2,2-trifluoro-ethyl)-urea]	3 µM
<5	Cc1nnc(-c2ccn3c(-c4cc(NC(=O)NCC(F)(F)F)cc(OC(C)C)c4)cnc3c2)s1.Cl [Compound F-20, 1-{3-Isopropoxy-5-[7-(5-methyl-[1,3,4]thiadiazol-2-yl)-imidazo[1,2-a]pyridin-3-yl]-phenyl}-3-(2,2,2-trifluoro-ethyl)-urea]	0.1 µM
<5	CCNC(=O)Nc1cc(OC(C)C)cc(-c2cnc3cc(-c4nnc(C)s4)ccn23)c1 [Compound F-23, 1-Ethyl-3-{3-isopropoxy-5-[7-(5-methyl-[1,3,4]thiadiazol-2-yl)-imidazo[1,2-a]pyridin-3-yl]-phenyl}-urea]	5 µM
